Patent US20070275994A1, “Novel Antinfective Compounds” (priority 2003, published 2007)
Values after ≈ are worked out from the molar mass of the structure shown.

What was measured:
[1] = tested on: Staphylococcus epidermidis MTCC 155; experiment: MIC by microbroth dilution, Staphylococcus epidermidis MTCC 155; type: cell-based; settings: MTCC155, Mueller Hinton Broth, 37° C., 16-18 hrs, read-out: MIC, in vitro activity, Se
Procedure: (§1) The antibacterial spectrum and potency of a particular compound may be determined in a standard test system.
(§2) The minimum inhibitory concentrations (MIC's) of the compounds for the microorganisms listed in Table A were determined by preparing working solution for each compound of concentration of 128 μg/ml after dissolving it in DMSO. […] 30 μg/ml of Standard suspension of each organism which was prepared with turbidity equivalent to the 1:10 diluted 0.5 McFarland standard with density 10^7 CFU/ml, was added to each well to get approximately a density of 10^5 CFU/ml. These 96-well Tissue culture plate containing the test samples and positive and negative controls, were incubated at 37° C. for 16-18 hrs. The wells were visually inspected for growth and were also read at 630 nm by Automated Microplate Reader [(EL800) Trinity Biotech.] and the MIC's were recorded as the lowest concentration of drug which inhibits the growth of bacteria.
(§3) • Bp: Bacillus pumilus MTCC 1607 • S.e.: Staphylococcus epidermidis MTCC 155 • S.p.: Staphylococcus pyogenes MTCC 442 • S.a.1: Staphylococcus aureus MTCC 96 • S.a.2: Staphylococcus aureus ATCC 14154 • S.a.3: Staphylococcus aureus ATCC 25923 • S.a.4: Staphylococcus aureus ATCC 29213 • E.f.1: Enterococcus faecalis MTCC 439 • E.f.2: Enterococcus faecalis ATCC 14506 • K.0p.: Klebsiella pneumoniae ATCC 10031

[2] = tested on: Staphylococcus aureus ATCC 29213; experiment: MIC by microbroth dilution, Staphylococcus aureus ATCC 29213; type: cell-based; settings: ATCC29213, Mueller Hinton Broth, 37° C., 16-18 hrs, read-out: MIC, in vitro activity, Sa4
Procedure: as §1, §2, §3

[3] = tested on: Enterococcus faecalis ATCC 14506; experiment: MIC by microbroth dilution, Enterococcus faecalis ATCC 14506; type: cell-based; settings: ATCC14506, Mueller Hinton Broth, 37° C., 16-18 hrs, read-out: MIC, in vitro activity, Ef2
Procedure: as §1, §2, §3

[4] = tested on: Staphylococcus aureus ATCC 25923; experiment: MIC by microbroth dilution, Staphylococcus aureus ATCC 25923; type: cell-based; settings: ATCC25923, Mueller Hinton Broth, 37° C., 16-18 hrs, read-out: MIC, in vitro activity, Sa3
Procedure: as §1, §2, §3

[5] = tested on: Staphylococcus pyogenes MTCC 442; experiment: MIC by microbroth dilution, Staphylococcus pyogenes MTCC 442; type: cell-based; settings: MTCC442, Mueller Hinton Broth, 37° C., 16-18 hrs, read-out: MIC, in vitro activity, Sp
Procedure: as §1, §2, §3

[6] = tested on: Enterococcus faecalis MTCC 439; experiment: MIC by microbroth dilution, Enterococcus faecalis MTCC 439; type: cell-based; settings: 37° C., 16-18 hrs; for MIC: MTCC439, Mueller Hinton Broth, read-out: MIC, in vitro activity, Ef1
Procedure: as §1, §2, §3

[7] = tested on: Pseudomonas aeruginosa ATCC 27853; experiment: MIC by microbroth dilution, Pseudomonas aeruginosa ATCC 27853; type: cell-based; settings: 37° C., 16-18 hrs; for MIC: ATCC27853, Mueller Hinton Broth, read-out: MIC, in vitro activity, Pa; for MIC, in vitro activity, Pa: Mueller Hinton Broth
Procedure: as §1, §2
P.a.: Pseudomonas aeruginosa ATCC 27853

[8] = tested on: Staphylococcus aureus ATCC 14154; experiment: MIC by microbroth dilution, Staphylococcus aureus ATCC 14154; type: cell-based; settings: ATCC14154, Mueller Hinton Broth, 37° C., 16-18 hrs, read-out: MIC, in vitro activity, Sa2
Procedure: as §1, §2, §3

[9] = tested on: Bacillus pumilus MTCC 1607; experiment: MIC by microbroth dilution, Bacillus pumilus MTCC 1607; type: cell-based; settings: 37° C., 16-18 hrs; for MIC: MTCC1607, Mueller Hinton Broth, read-out: MIC, in vitro activity, Bp; for MIC, in vitro activity, Bp: Mueller Hinton Broth
Procedure: as §1, §2, §3

[10] = tested on: Staphylococcus aureus MTCC 96; experiment: MIC by microbroth dilution, Staphylococcus aureus MTCC 96; type: cell-based; settings: 37° C., 16-18 hrs; for MIC: MTCC96, Mueller Hinton Broth, read-out: MIC, in vitro activity, Sa1; for MIC, in vitro activity, Sa1: Mueller Hinton Broth
Procedure: as §1, §2, §3

Row | Compound | MIC [1] [µg/mL] | MIC [2] [µg/mL] | MIC [3] [µg/mL] | MIC [4] [µg/mL] | MIC [5] [µg/mL] | MIC [6] [µg/mL] | MIC [7] [µg/mL] | MIC [8] [µg/mL] | MIC [9] [µg/mL] | MIC [10] [µg/mL] | MIC, in vitro activity, Ef1 ([6]; Mueller Hinton Broth) [µg/mL] | MIC, in vitro activity, Pa [7] [µg/mL] | MIC, in vitro activity, Bp [9] | MIC, in vitro activity, Sa1 [10] [µg/mL] | melting point [°C]
1 | COc1c(N2CCNC(C)C2)c(F)cc2c(=O)c(C(=O)O)cn(C3CC3)c12 (stereo not drawn) [Gatifloxacin, gatifloxacin, reference compound] | ≤ 0.12 | 0.12 (≈ 0.32 µM) | 0.5 (≈ 1.33 µM) | 0.25 (≈ 0.666 µM) | 0.5 (≈ 1.33 µM) | 0.5 (≈ 1.33 µM) | 4 (≈ 10.7 µM) | ≤ 0.12 | ≤ 0.12 | ≤ 0.12 | – | – | – | – | –
2 | COc1c(N2CCc3sccc3C2)c(F)c([N+](=O)[O-])c2c(=O)c(C(=O)O)cn(C3CC3)c12 [Compound 15, 1-Cyclopropyl-7-(6,7-dihydro-4H-thieno[3,2-c]pyridin-5-yl)-6-fluoro-8-methoxy-5-nitro-4-oxo-1,4-dihydro-quinoline-3-carboxylic acid] | – | – | – | – | – | – | – | – | 0.25 (≈ 0.544 µM) | 1 (≈ 2.18 µM) | – | – | – | – | –
3 | COc1c(N2CCc3sc(CO)cc3C2)c(F)cc2c(=O)c(C(=O)O)cn(C3CC3)c12 [Compound 21, 1-Cyclopropyl-6-fluoro-7-(2-hydroxymethyl-6,7-dihydro-4H-thieno[3,2-c]pyridin-5-yl)-8-methoxy-4-oxo-1,4-dihydro-quinoline-3-carboxylic acid] | 0.25 (≈ 0.562 µM) | – | – | – | – | 0.25 (≈ 0.562 µM) | 16 (≈ 36 µM) | – | ≤ 0.12 | 0.25 (≈ 0.562 µM) | – | – | – | – | –
4 | COc1c(N2CCc3occc3C2C)c(F)cc2c(=O)c(C(=O)O)cn(C3CC3)c12 (stereo not drawn) [Compound 23, 1-Cyclopropyl-6-fluoro-8-methoxy-7-(4-methyl-6,7-dihydro-4H-fluoro[3,2-c]pyridin-5-yl)-4-oxo-1,4-dihydro-quinoline-3-carboxylic acid] | – | – | – | – | – | – | – | – | – | – | 2 (≈ 4.85 µM) | >16 | ≦0.12 μg/ml | 8 (≈ 19.4 µM) | –
5 | Nc1c(F)c(N2CCc3sccc3C2)c(F)c2c1c(=O)c(C(=O)O)cn2C1CC1 [Compound 17, 5-Amino-1-cyclopropyl-7-(6,7-dihydro-4H-thieno[3,2-c]pyridin-5-yl)-6,8-difluoro-4-oxo-1,4-dihydro-quinoline-3-carboxylic acid] | ≤ 0.12 | 0.25 (≈ 0.599 µM) | 0.25 (≈ 0.599 µM) | 0.5 (≈ 1.2 µM) | ≤ 0.12 | ≤ 0.12 | 16 (≈ 38.3 µM) | ≤ 0.12 | ≤ 0.12 | ≤ 0.12 | – | – | – | – | –
6 | O=C(O)c1cn(C2CC2)c2cc(N3CCNCC3)c(F)cc2c1=O [Ciprofloxacin, ciprofloxacin, reference compound] | 0.25 (≈ 0.754 µM) | 0.25 (≈ 0.754 µM) | 0.25 (≈ 0.754 µM) | 0.5 (≈ 1.51 µM) | 0.5 (≈ 1.51 µM) | 0.25 (≈ 0.754 µM) | 0.5 (≈ 1.51 µM) | 0.5 (≈ 1.51 µM) | < 0.12 | 0.25 (≈ 0.754 µM) | – | – | – | – | –
7 | COc1c(N2CCc3sc(C(=O)O)cc3C2)c(F)cc2c(=O)c(C(=O)O)cn(C3CC3)c12 [Compound 22, 7-(2-carboxy-6,7-dihydro-4H-thieno[3,2-c]pyridin-5-yl)-1-cyclopropyl-6-fluoro-8-methoxy-4-oxo-1,4-dihydro-quinoline-3-carboxylic acid] | – | – | – | – | – | 8 (≈ 17.4 µM) | > 16 | – | 0.5 (≈ 1.09 µM) | 4 (≈ 8.72 µM) | – | – | – | – | –
8 | O=C(O)c1cn(C2CC2)c2c(F)c(N3CCc4sccc4C3)c(F)c(F)c2c1=O [Compound 16, 1-Cyclopropyl-7-(6,7-dihydro-4H-thieno[3,2-c]pyridin-5-yl)-5,6,8-fluoro-4-oxo-1,4-dihydro-quinoline-3-carboxylic acid] | – | – | – | – | – | – | – | – | – | – | – | >64 | 0.25 µg/mL (≈ 0.595 µM) | 0.25 (≈ 0.595 µM) | –
9 | COc1c(N2CCc3sc(C=O)cc3C2)c(F)cc2c(=O)c(C(=O)O)cn(C3CC3)c12 [Compound 20, 1-Cyclopropyl-6-fluoro-7-(2-formyl-6,7-dihydro-4H-thieno[3,2-c]pyridin-5-yl)-8-methoxy-4-oxo-1,4-dihydro-quinoline-3-carboxylic acid] | 0.25 (≈ 0.565 µM) | – | – | – | 0.25 (≈ 0.565 µM) | ≤ 0.12 | 8 (≈ 18.1 µM) | – | ≤ 0.12 | ≤ 0.12 | – | – | – | – | –
10 | O=C(O)c1cn(C2CC2)c2cc(N3CCc4sccc4C3)c(F)cc2c1=O [Compound 14, 1-Cyclopropyl-7-(6,7-dihydro-4H-thieno[3,2-c]pyridin-5-yl)-6-fluoro-4-oxo-1,4-dihydro-quinoline-3-carboxylic acid] | 0.25 (≈ 0.65 µM) | 0.5 (≈ 1.3 µM) | – | 0.5 (≈ 1.3 µM) | – | – | – | 0.25 (≈ 0.65 µM) | ≤ 0.12 | 0.25 (≈ 0.65 µM) | – | – | – | – | –
11 | COc1c(N2CCc3sccc3C2)c(F)cc2c(=O)c(C(=O)O)cn(C3CC3)c12 [Compound 13, 1-Cyclopropyl-7-(6,7-dihydro-4H-thieno[3,2-c]pyridin-5-yl)-6-fluoro-8-methoxy-4-oxo-1,4-dihydro-quinoline-3-carboxylic acid] | ≤ 0.12 | 0.25 (≈ 0.603 µM) | 0.25 (≈ 0.603 µM) | 0.5 (≈ 1.21 µM) | ≤ 0.12 | ≤ 0.12 | 16 (≈ 38.6 µM) | ≤ 0.12 | ≤ 0.12 | ≤ 0.12 | – | – | – | – | 173 to 175
12 | COc1c(N2CCc3sc([N+](=O)[O-])cc3C2)c(F)cc2c(=O)c(C(=O)O)cn(C3CC3)c12 [Compound 19, 1-Cyclopropyl-6-fluoro-8-methoxy-7-(2-nitro-6,7-dihydro-4H-thieno[3,2-c]pyridin-5-yl)-4-oxo-1,4-dihydro-quinoline-3-carboxylic acid] | ≤ 0.12 | – | 0.25 (≈ 0.544 µM) | – | ≤ 0.12 | ≤ 0.12 | 1 (≈ 2.18 µM) | – | ≤ 0.12 | 0.25 (≈ 0.544 µM) | – | – | – | – | –
